Measured values reported in PMC3763640, “Effect of Co-Administration of Rivaroxaban and Clopidogrel on Bleeding Time, Pharmacodynamics and Pharmacokinetics: A Phase I Study” (Pharmaceuticals, 2012).
Each block holds one molecule with its values, some of them ahead of it.

Experiments:
healthy male subjects [1] = test: Bleeding time test (Surgicutt incision, forearm); type: in vivo, human; details: rivaroxaban 15 mg single dose, clopidogrel 300 mg day 1 + 75 mg day 2, combination with rivaroxaban on day 2; for least squares-mean relative change in bleeding time compared with baseline: 4 h after last drug administration
Description: Bleeding time tests were performed in accordance with the protocol reported by the International Committee on Standardization of the Bleeding Time. Bleeding time measurements depend on the method and on who carries out the procedure; therefore, results vary greatly between studies. To reduce variability, one study nurse was specifically trained in the procedure of the test before this study. The same study nurse carried out all measurements at all time points for each subject. […] A sphygmomanometer on the upper arm was inflated to 40 mmHg for 30 seconds before the incision was made and maintained at 40 mmHg until the end of the procedure. The bleeding time incision was made by placing a Surgicutt Adult® (ITC, Edison, NJ, USA) device (used in accordance with the recommendations of the manufacturer, as specified in the package insert) gently against the forearm, perpendicular (vertical) to the elbow crease. […] The bleeding time was measured in seconds as the total duration of blood flow from the wound. […] Statistical evaluations were performed with the use of the SAS® software package version 8.2 at the Department of Global Pharmacometrics (Bayer HealthCare AG, Wuppertal, Germany). […] Student's paired t tests were used to compare treatments for these parameters, and 90% confidence intervals (CIs) for the difference were calculated.

Factor Xa = target: T1, Factor Xa (Homo sapiens, UniProt P00742); test: Factor Xa activity in plasma after dosing; type: in vivo; details: for median value of Factor Xa activity: 4 h after administration, rivaroxaban 15 mg
T1 construct: Blood samples were centrifuged to obtain plasma samples, which were then frozen and stored below −15 °C until analysis; from tissue; host or cells: plasma from blood samples of the healthy male study subjects
Description: (§1) The effects of rivaroxaban and clopidogrel on Factor Xa activity, prothrombin time (PT), activated partial thromboplastin time (aPTT) and HepTest were assessed, as described previously. Factor Xa activities above 0.1 IU/mL (the lower limit of quantification) were determined with a precision of 3.8–6.6% and an accuracy of 96–114%. […] When only clopidogrel was administered (treatment A), blood samples were taken after 4, 8, 24 and 48 h. Blood samples were centrifuged to obtain plasma samples, which were then frozen and stored below −15 °C until analysis.

[2] = Prothrombin time (PT) in plasma after dosing; type: in vivo, human
Description: as §1

[3] = Activated partial thromboplastin time (aPTT) in plasma after dosing; type: in vivo, human; details: combination compared with rivaroxaban alone
Description: as §1

[4] = HepTest in plasma after dosing; type: in vivo, human; details: combination compared with rivaroxaban alone
Description: as §1

platelet aggregation = test: ADP-stimulated platelet aggregation (Born method); type: in vivo, human; details: for platelet aggregation, median relative change from baseline: 4 h after drug administration
Description: A clopidogrel response screening period preceded the study (Figure 1). […] The initial dose of 300 mg clopidogrel was chosen for this study because this loading dose is generally used in patients with ACS [24]. A second dose of 75 mg clopidogrel was selected because this is the standard daily dose recommended by guidelines for use in patients with a variety of relevant conditions, including atrial fibrillation, stroke and ACS [24]. […] This method is based on the turbidimetric determination of cell suspensions. […] Measurement was performed at 650 nm. The individual response of changes of platelet aggregation to baseline was determined using 29 µM ADP in addition to an optimized individual activating regimen using ADP. […] Statistical evaluations were performed with the use of the SAS® software package version 8.2 at the Department of Global Pharmacometrics (Bayer HealthCare AG, Wuppertal, Germany). […] Student’s paired t tests were used to compare treatments for these parameters, and 90% confidence intervals (CIs) for the difference were calculated.

[5] = tested on: GPIIb/IIIa, P-selectin and annexin V; test: Platelet activation markers by flow cytometry; type: in vivo, human; details: 4 h after drug administration, relative to baseline
Description: To assure uniformity of assays and to minimize sample manipulation, blood samples were mixed gently and processed without delay. Platelet-rich plasma was prepared by slow centrifugation, and platelets were labelled with monoclonal antibodies against GPIIb/IIIa (CD41a), […] (CD62p) and annexin V protein. Samples were analysed using a COULTER® EPICS® XLTM flow cytometer (Beckman Coulter, Inc.; Brea, CA, USA). The average immunofluorescence of the total population or the fraction of activated events was determined and compared with individual control samples before treatment.

healthy male subjects [6] = test: Safety and tolerability; type: in vivo, human; details: single dose of 15 mg rivaroxaban
Description: Safety and tolerability were assessed subjectively and objectively. Subjective assessment was obtained by asking the subjects non-leading questions about the occurrence of any adverse events or by spontaneous reporting of adverse events. Adverse events were classified according to their degree of severity. Objective tolerability was evaluated by monitoring cardiovascular parameters including heart rate, blood pressure and ECG parameters. In addition, blood tests, clinical chemistry, urine test and drug screening were part of the objective assessment.

[7] = individually optimized concentration of ADP
[8] = 12 h after administration of 15 mg rivaroxaban

T1 sequence (P00742 235-488 limits assumed): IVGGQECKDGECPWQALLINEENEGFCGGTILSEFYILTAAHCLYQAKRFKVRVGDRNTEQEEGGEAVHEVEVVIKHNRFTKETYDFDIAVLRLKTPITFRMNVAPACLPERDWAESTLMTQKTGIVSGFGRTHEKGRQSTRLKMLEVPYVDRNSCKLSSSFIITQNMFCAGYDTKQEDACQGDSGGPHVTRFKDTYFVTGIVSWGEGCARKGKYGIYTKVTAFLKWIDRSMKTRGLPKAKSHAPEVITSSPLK
T1 sequence (P00742 41-179 partner limits assumed): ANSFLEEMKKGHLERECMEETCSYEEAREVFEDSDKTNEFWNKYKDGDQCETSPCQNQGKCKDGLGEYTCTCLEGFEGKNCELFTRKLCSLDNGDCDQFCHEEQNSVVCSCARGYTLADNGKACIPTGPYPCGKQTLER

- least squares-mean relative change in bleeding time compared with baseline (healthy male subjects [1]): 2.0 fold
- median value of Factor Xa activity (Factor Xa): 0.9 U/mL
- effect on Factor Xa activity (Factor Xa; combination compared with rivaroxaban alone): no effect
SMILES: COC(=O)[C@H](c1ccccc1Cl)N1CCc2sccc2C1 [clopidogrel]
- effect on PT ([2]; compared with baseline, combination compared with rivaroxaban monotherapy): did not change
- effect on aPTT [3]: did not affect
- effect on HepTest [4]: did not affect
- platelet aggregation, median relative change from baseline (platelet aggregation; 29 µM ADP): 0.340
- platelet aggregation, median relative change from baseline (platelet aggregation; [7]): 0.249
- number of subjects identified as clopidogrel responders (more than 40% inhibition of platelet aggregation compared with baseline) (platelet aggregation; of 27 healthy male subjects, single dose of 300 mg clopidogrel, 24 h after administration): 14
- effect on platelet activation markers [5]: pronounced decrease

SMILES: O=C(NC[C@H]1CN(c2ccc(N3CCOCC3=O)cc2)C(=O)O1)c1ccc(Cl)s1 [rivaroxaban]
- least squares-mean relative change in bleeding time compared with baseline (healthy male subjects [1]): 1.1 fold
- bleeding time, overall least squares-means (healthy male subjects [1]; clopidogrel responders): 1.13 times baseline
- median value of Factor Xa activity (Factor Xa): 0.57 U/mL
- Factor Xa inhibition, return to values within % of baseline (Factor Xa; [8]): ≤ 10%
- PT, return to values within % of baseline [2, 8]: ≤ 10%
- platelet aggregation, median relative change from baseline (platelet aggregation; 29 µM ADP): 1.1
- platelet aggregation, median relative change from baseline (platelet aggregation; [7]): 0.9
- effect on platelet aggregation (platelet aggregation; optimized ADP or fixed 29 µM ADP): not affected
- effect on platelet activation markers [5]: no relevant effect
- safety and tolerability (healthy male subjects [6]): safe and well tolerated
